# Data: patent US20080287398A1, “COLD MENTHOL RECEPTOR-1 ANTAGONISTS” (priority 2007, published 2008)
# Where “and” joins values, the source holds several entries; their conditions need not be identical. Identical values can stand only once. Like-named read-outs stand apart in the source and are kept apart here.
# Target: T1, canine TRPM8 (Canis lupus familiaris, UniProt Q1A7N1)
# T1 construct: expressed in transfected cells
# Test: In vitro canine TRPM8 functional assay (Ca2+-sensitive dye, FLIPR/FDSS, icilin activation)
# Assay type: cell-based
# Details: HEK293 cells expressing canine TRPM8, icilin activation; for IC50: eight-point dose-response; for % I (0.5 μM): 0.5 μM compound; for inhibition at 1 µM: HEK293, read-out: % I (1 μM), 1 μM compound; for % I (1 μM): 1 μM compound
# Procedure, shortened: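 Icilin challenge (final concentration producing ~80% of maximal response) followed a 5 min compound exposure in canine TRPM8-HEK293 cells dye-loaded with Calcium 3. Intracellular Ca2+ was read on FLIPR/FDSS. EC50 and IC50 values came from nonlinear sigmoidal dose-response fits of basal-subtracted, percent-of-maximum data averaged over quadruplicates.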
# T1 sequence (Q1A7N1 1-1104): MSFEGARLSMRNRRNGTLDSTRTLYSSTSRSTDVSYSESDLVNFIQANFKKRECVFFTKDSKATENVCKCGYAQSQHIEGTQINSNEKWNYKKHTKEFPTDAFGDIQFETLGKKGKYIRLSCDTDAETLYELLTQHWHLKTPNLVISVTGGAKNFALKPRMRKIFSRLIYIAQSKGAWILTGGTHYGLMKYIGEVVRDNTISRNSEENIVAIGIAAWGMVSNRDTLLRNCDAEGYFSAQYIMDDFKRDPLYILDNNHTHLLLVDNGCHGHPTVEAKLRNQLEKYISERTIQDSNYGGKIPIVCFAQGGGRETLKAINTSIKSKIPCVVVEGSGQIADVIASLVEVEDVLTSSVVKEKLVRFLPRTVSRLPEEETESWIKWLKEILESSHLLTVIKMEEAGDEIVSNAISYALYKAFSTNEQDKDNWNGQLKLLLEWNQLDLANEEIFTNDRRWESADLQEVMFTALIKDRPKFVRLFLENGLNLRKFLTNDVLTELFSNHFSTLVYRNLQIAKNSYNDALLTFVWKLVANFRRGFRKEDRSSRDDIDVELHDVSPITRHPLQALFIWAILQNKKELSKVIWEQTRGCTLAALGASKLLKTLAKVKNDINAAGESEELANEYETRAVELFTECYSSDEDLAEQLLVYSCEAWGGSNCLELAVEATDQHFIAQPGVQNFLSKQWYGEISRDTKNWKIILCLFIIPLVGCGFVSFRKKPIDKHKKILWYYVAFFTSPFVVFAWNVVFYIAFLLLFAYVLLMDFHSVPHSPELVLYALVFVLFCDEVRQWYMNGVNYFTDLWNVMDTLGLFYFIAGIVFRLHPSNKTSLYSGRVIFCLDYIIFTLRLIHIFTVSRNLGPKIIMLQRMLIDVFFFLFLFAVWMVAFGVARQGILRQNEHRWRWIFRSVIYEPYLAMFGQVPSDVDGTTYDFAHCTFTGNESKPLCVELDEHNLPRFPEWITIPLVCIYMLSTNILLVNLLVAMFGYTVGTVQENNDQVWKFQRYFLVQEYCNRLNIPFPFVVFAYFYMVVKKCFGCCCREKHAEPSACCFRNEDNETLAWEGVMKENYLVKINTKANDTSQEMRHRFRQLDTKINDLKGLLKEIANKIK
SMILES,IC50 (read-out: IC50),% I (0.5 μM),% I (1 μM),further results
"CCOP(=O)(OCC)C(Cc1ccc(F)c(F)c1)c1sc2ccccc2c1-c1ccccc1 (stereo not drawn) [Cpd 214, [2-(3,4-Difluoro-phenyl)-1-(3-phenyl-benzo[b]thiophen-2-yl)-ethyl]-phosphonic acid diethyl ester]",–,–,–,"inhibition at 0.5 µM (HEK293, read-out: % I (0.5 μM), 0.5 μM compound): 101%; IC50 (IC50 (μM)): 0.08 µM"
CCOP(=O)(OCC)C(Cc1ccccc1F)c1csc2ccccc12 (stereo not drawn) [Cpd 86],0.5 µM,–,–,% I (5 μM) (5 μM compound): 101%
CC(C)OP(=O)(OC(C)C)C(Cc1ccc(F)c(C(F)(F)F)c1)c1sc2cccc(F)c2c1Br (racemic) [Cpd 222],0.033 µM,103%,–,–
"CCOP(=O)(OCC)C(Cc1ccc(F)c(F)c1)c1sc2ccc(F)cc2c1C (stereo not drawn) [Cpd 45, [2-(3,4-Difluoro-phenyl)-1-(5-fluoro-3-methyl-benzo[b]thiophene-2-yl)-ethyl]-phosphonic acid diethyl ester]",–,–,–,inhibition at 1 µM: 100%; IC50 (IC50 (μM)): 0.164 µM
CCOP(=O)(OCC)C(Cc1ccc2ccccc2c1)c1sc2ccccc2c1C (stereo not drawn) [Cpd 46],0.167 µM,–,99%,–
CCOP(=O)(OCC)C(Cc1ccc(C(F)(F)F)c(F)c1)c1cc2ccccc2s1 (stereo not drawn) [Cpd 58],0.27 µM,–,100%,–
CC(C)OP(=O)(OC(C)C)C(Cc1cccc(F)c1)c1sc2ccccc2c1Br (stereo not drawn) [Cpd 192],0.038 µM,–,103%,–
CCOP(=O)(OCC)C(Cc1ccc(C(F)(F)F)cc1F)c1sc2ccccc2c1Cl (racemic) [Cpd 291],0.156 µM,103%,–,–
"CCOP(=O)(CC(C)C)C(Cc1ccc(F)c(F)c1)c1sc2ccccc2c1C (stereo not drawn) [Cpd 6, [2-(3,4-Difluoro-phenyl)-1-(3-methyl-benzo[b]thiophene-2-yl)-ethyl]-isobutyl-phosphonic acid ethyl ester]",0.028 µM,–,100%,–
"CC(C)OP(=O)(OC(C)C)/C(=C/c1ccc(F)c(F)c1)c1cc2ccccc2s1 [Cpd 333, (E)-[1-Benzo[b]thiophen-2-yl-2-(3,4-difluoro-phenyl)-vinyl]-phosphonic acid diisopropyl ester]",0.176 µM,–,–,"inhibition at 0.5 µM (HEK293, 0.5 μM compound, read-out: % I (0.5 μM)): 95%"
CCOP(=O)(OCC)C(Cc1ccc(F)c(F)c1)c1oc2ccccc2c1Br (stereo not drawn) [Cpd 266],0.051 µM,–,103%,–
Cc1c(C(Cc2ccc(F)c(F)c2)P(=O)(OC(C)C)OC(C)C)oc2ccccc12 (stereo not drawn) [Cpd 11],0.043 µM and 0.047 µM,–,99% and 103%,–
CCOP(=O)(OCC)C(Cc1cccc(C(=O)OC)c1)c1sc2ccccc2c1Br (stereo not drawn) [Cpd 313],0.083 µM,102%,–,–
CCOP(=O)(OCC)C(Cc1ccccc1Cl)c1sc2ccccc2c1C (stereo not drawn) [Cpd 48],0.169 µM,–,100%,–
CCOP(=O)(OCC)C(Cc1cccc(O)c1)c1sc2ccccc2c1Br (stereo not drawn) [Cpd 316],0.032 µM and 0.02 µM,103% and 104%,–,–
CCOP(=O)(OCC)C(Cc1cc(OC)cc(OC)c1)c1sc2ccccc2c1Br (stereo not drawn) [Cpd 319],0.026 µM,103%,–,–
"CCOP(=O)(OCC)C(Cc1ccc(F)c(F)c1)c1sc2c(F)cccc2c1C (stereo not drawn) [Cpd 8, [2-(3,4-Difluoro-phenyl)-1-(7-fluoro-3-methyl-benzo[b-]thiophene-2-yl)-ethyl]-phosphonic acid diethyl ester]",–,–,–,inhibition at 1 µM: 100%; IC50 (IC50 (μM)): 0.037 µM
CCOP(=O)(OCC)C(Cc1ccc(SC(F)(F)F)cc1)c1sc2ccccc2c1Cl (racemic) [Cpd 283],0.125 µM,103%,–,–
CCOP(=O)(OCC)C(Cc1cc(C(F)(F)F)ccc1F)c1sc2ccccc2c1Cl (racemic) [Cpd 286],0.127 µM,102%,–,–
CC(C)OP(=O)(OC(C)C)C(Cc1ccc(F)cc1C(F)(F)F)c1sc2ccccc2c1Br (stereo not drawn) [Cpd 249],0.054 µM,103%,–,–
CC(C)OP(=O)(OC(C)C)C(Cc1cccc(O)c1)c1sc2ccccc2c1Br (stereo not drawn) [Cpd 325],0.01 µM,97%,–,–
